Data published in patent US20240141294A1, “CGMP COMPLIANT PRODUCTION AND EXPANSION OF PLASMACYTOID DENDRITIC CELLS FROM HEMATOPOIETIC STEM AND PROGENITOR CELLS” (AARHUS UNIVERSITET, priority 2021, published 2024).

Tested on: HSPC-pDCs
Test: RNA-sequencing of HSPC-pDCs generated with or without ascorbic acid
Type: cell-based, human
Conditions: for Log2 (+AA/−AA) / +AA FPKM: Table 2
Protocol: HSPCs were thawed and 1×10^5 cells were seeded in DC medium with or without supplementation of ascorbic acid (AA). Following 16 days of differentiation with or without AA in the medium, pDCs were isolated by immunomagnetic depletion of non-pDCs, and HSPCs-pDCs were then primed for 72 hours with IFN-β/γ. Following priming, HSPC-pDCs were stored in RNAprotect Cell Reagent (Qiagen) at −80° C. until total RNA was extracted using the RNeasy Plus Micro Kit (Qiagen), which efficiently eliminates genomic DNA without the need for DNase treatment. The total RNA was send to BGI Europe for RNA-seq. Here, a non-stranded & polyA-selected mRNA library was prepared from the total RNA and subjected to PE100 sequencing using the BGISEQ platform. The samples generated on average about 4.84 Gb bases per sample. Low quality reads were filtered and the remaining reads were mapped to the genome with an average mapping ratio with the reference genome at 92.74%, the average gene mapping ratio at 79.90%. In total, 18,412 genes were identified. Gene expression was calculated based on the reads, differentially expressed genes and gene ontology analyses were analyzed on BGI's software analysis platform Dr. Tom. HSPCs were thawed and 1×10^5 cells were seeded in DC medium with or without supplementation of ascorbic acid (AA). Following 16 days of differentiation with or without AA in the medium, pDCs were isolated by immunomagnetic depletion of non-pDCs, and HSPCs-pDCs were then primed for 72 hours with IFN-β/γ. Following priming, HSPC-pDCs were stored in RNAprotect Cell Reagent (Qiagen) at −80 degrees until total RNA was extracted using the RNeasy Plus Micro Kit (Qiagen), which efficiently eliminates genomic DNA without the need for DNase treatment. The total RNA was send to BGI Europe for RNA-seq. Here, a non-stranded & polyA-selected mRNA library was prepared from the total RNA and subjected to PE100 sequencing using the BGISEQ platform. The samples generated on average about 4.84 Gb bases per sample. Low quality reads were filtered and the remaining reads were mapped to the genome with an average mapping ratio with the reference genome at 92.74%, the average gene mapping ratio at 79.90%. In total, 18,412 genes were identified. Gene expression was calculated based on the reads, differentially expressed genes and gene ontology analyses were analyzed on BGI's software analysis platform Dr. Tom.

SMILES: O=C1O[C@H]([C@@H](O)CO)C(O)=C1O [ascorbic acid]
- Log2 (+AA/−AA) (gene ACP5, Qvalue 4.83E−10): 2.221
- +AA FPKM (gene ACP5, −AA FPKM 31.073): 146.980 FPKM
- Log2 (+AA/−AA) (gene ADAMDEC1, Qvalue 0.0010135): 3.569
- +AA FPKM (gene ADAMDEC1, −AA FPKM 1.127): 13.453 FPKM
- Log2 (+AA/−AA) (gene ASS1, Qvalue 2.41E−08): 5.358
- +AA FPKM (gene ASS1, −AA FPKM 0.477): 19.263 FPKM
- Log2 (+AA/−AA) (gene ATF5, Qvalue 2.01E−54): 2.398
- +AA FPKM (gene ATF5, −AA FPKM 24.183): 129.867 FPKM
- Log2 (+AA/−AA) (gene AXL, Qvalue 9.98E−29): 4.406
- +AA FPKM (gene AXL, −AA FPKM 1.033): 21.903 FPKM
- Log2 (+AA/−AA) (gene C3, Qvalue 0.001547846): 3.579
- +AA FPKM (gene C3, −AA FPKM 1.227): 14.750 FPKM
- Log2 (+AA/−AA) (gene CCL2, Qvalue 5.74E−06): 4.646
- +AA FPKM (gene CCL2, −AA FPKM 7.183): 179.503 FPKM
- Log2 (+AA/−AA) (gene CCL13, Qvalue 8.06E−14): 6.195
- +AA FPKM (gene CCL13, −AA FPKM 0.197): 14.483 FPKM
- Log2 (+AA/−AA) (gene CD14, Qvalue 2.98E−25): 4.038
- +AA FPKM (gene CD14, −AA FPKM 2.797): 46.303 FPKM
- Log2 (+AA/−AA) (gene CD209, Qvalue 9.84E−27): 2.774
- +AA FPKM (gene CD209, −AA FPKM 2.460): 16.407 FPKM
- Log2 (+AA/−AA) (gene CES1, Qvalue 0.03002647): 3.002
- +AA FPKM (gene CES1, −AA FPKM 6.620): 52.940 FPKM
- Log2 (+AA/−AA) (gene CFB, Qvalue 2.09E−06): 3.059
- +AA FPKM (gene CFB, −AA FPKM 1.257): 10.533 FPKM
- Log2 (+AA/−AA) (gene CHI3L1, Qvalue 0.024834793): 2.178
- +AA FPKM (gene CHI3L1, −AA FPKM 108.107): 495.927 FPKM
- Log2 (+AA/−AA) (gene CTSL, Qvalue 0.031636618): 2.759
- +AA FPKM (gene CTSL, −AA FPKM 3.140): 21.410 FPKM
- Log2 (+AA/−AA) (gene CXCL10, Qvalue 1.78E−06): 2.352
- +AA FPKM (gene CXCL10, −AA FPKM 36.100): 183.493 FPKM
- Log2 (+AA/−AA) (gene DEFA1, Qvalue 6.38E−05): 5.728
- +AA FPKM (gene DEFA1, −AA FPKM 19.907): 1047.070 FPKM
- Log2 (+AA/−AA) (gene DEFA3, Qvalue 0.001704486): 4.431
- +AA FPKM (gene DEFA3, −AA FPKM 27.457): 593.480 FPKM
- Log2 (+AA/−AA) (gene DEFA4, Qvalue 1.65E−08): 4.651
- +AA FPKM (gene DEFA4, −AA FPKM 39.303): 975.213 FPKM
- Log2 (+AA/−AA) (gene DNASE1L3, Qvalue 5.63E−10): 2.459
- +AA FPKM (gene DNASE1L3, −AA FPKM 1.893): 10.470 FPKM
- Log2 (+AA/−AA) (gene FPR3, Qvalue 3.93E−08): 2.200
- +AA FPKM (gene FPR3, −AA FPKM 10.853): 50.280 FPKM
- Log2 (+AA/−AA) (gene GIMAP4, Qvalue 3.03E−09): 2.409
- +AA FPKM (gene GIMAP4, −AA FPKM 3.960): 20.933 FPKM
- Log2 (+AA/−AA) (gene GPNMB, Qvalue 4.79E−08): 4.418
- +AA FPKM (gene GPNMB, −AA FPKM 4.760): 101.280 FPKM
- Log2 (+AA/−AA) (gene GZMB, Qvalue 3.57E−07): 3.081
- +AA FPKM (gene GZMB, −AA FPKM 3.773): 31.393 FPKM
- Log2 (+AA/−AA) (gene HSD11B1, Qvalue 0.044667374): 3.736
- +AA FPKM (gene HSD11B1, −AA FPKM 1.240): 16.590 FPKM
- Log2 (+AA/−AA) (gene IFI27, Qvalue 3.56E−04): 4.638
- +AA FPKM (gene IFI27, −AA FPKM 14.857): 376.697 FPKM
- Log2 (+AA/−AA) (gene IFI44L, Qvalue 1.82E−05): 2.109
- +AA FPKM (gene IFI44L, −AA FPKM 17.913): 81.280 FPKM
- Log2 (+AA/−AA) (gene IL4I1, Qvalue 5.63E−07): 2.589
- +AA FPKM (gene IL4I1, −AA FPKM 4.657): 28.410 FPKM
- Log2 (+AA/−AA) (gene IL32, Qvalue 2.92E−23): 2.353
- +AA FPKM (gene IL32, −AA FPKM 5.960): 30.560 FPKM
- Log2 (+AA/−AA) (gene KYNU, Qvalue 2.56E−05): 2.148
- +AA FPKM (gene KYNU, −AA FPKM 6.050): 26.750 FPKM
- Log2 (+AA/−AA) (gene LAG3, Qvalue 8.08E−20): 3.418
- +AA FPKM (gene LAG3, −AA FPKM 2.770): 29.953 FPKM
- Log2 (+AA/−AA) (gene LCN2, Qvalue 1.39E−54): 5.282
- +AA FPKM (gene LCN2, −AA FPKM 0.930): 35.670 FPKM
- Log2 (+AA/−AA) (gene LILRB4, Qvalue 3.21E−22): 3.922
- +AA FPKM (gene LILRB4, −AA FPKM 1.363): 19.833 FPKM
- Log2 (+AA/−AA) (gene MAFB, Qvalue 0.00100367): 3.471
- +AA FPKM (gene MAFB, −AA FPKM 1.023): 11.443 FPKM
- Log2 (+AA/−AA) (gene MMP14, Qvalue 1.27E−18): 4.564
- +AA FPKM (gene MMP14, −AA FPKM 1.470): 34.870 FPKM
- Log2 (+AA/−AA) (gene MPEG1, Qvalue 3.81E−23): 2.325
- +AA FPKM (gene MPEG1, −AA FPKM 22.783): 112.763 FPKM
- Log2 (+AA/−AA) (gene MX1, Qvalue 0.026353098): 2.341
- +AA FPKM (gene MX1, −AA FPKM 41.507): 211.673 FPKM
- Log2 (+AA/−AA) (gene MYL9, Qvalue 9.98E−29): 4.530
- +AA FPKM (gene MYL9, −AA FPKM 0.550): 12.580 FPKM
- Log2 (+AA/−AA) (gene NUPR1, Qvalue 8.23E−04): 3.257
- +AA FPKM (gene NUPR1, −AA FPKM 1.457): 14.303 FPKM
- Log2 (+AA/−AA) (gene OLR1, Qvalue 0.030792442): 2.719
- +AA FPKM (gene OLR1, −AA FPKM 1.523): 10.067 FPKM
- Log2 (+AA/−AA) (gene ORM1, Qvalue 1.09E−20): 4.863
- +AA FPKM (gene ORM1, −AA FPKM 3.003): 88.200 FPKM
- Log2 (+AA/−AA) (gene P2RY11, Qvalue 3.25E−10): 3.498
- +AA FPKM (gene P2RY11, −AA FPKM 0.970): 10.823 FPKM
- Log2 (+AA/−AA) (gene PLA2G7, Qvalue 0.030445407): 2.759
- +AA FPKM (gene PLA2G7, −AA FPKM 12.103): 86.573 FPKM
- Log2 (+AA/−AA) (gene SIGLEC1, Qvalue 0.003740839): 2.998
- +AA FPKM (gene SIGLEC1, −AA FPKM 3.223): 26.273 FPKM
- Log2 (+AA/−AA) (gene SLC7A7, Qvalue 6.15E−21): 2.460
- +AA FPKM (gene SLC7A7, −AA FPKM 9.010): 49.703 FPKM
- Log2 (+AA/−AA) (gene SLC15A3, Qvalue 4.84E−06): 2.417
- +AA FPKM (gene SLC15A3, −AA FPKM 9.753): 52.340 FPKM
- Log2 (+AA/−AA) (gene SPON2, Qvalue 6.39E−10): 2.497
- +AA FPKM (gene SPON2, −AA FPKM 4.037): 22.397 FPKM
- Log2 (+AA/−AA) (gene ST14, Qvalue 1.06E−29): 2.575
- +AA FPKM (gene ST14, −AA FPKM 1.920): 11.390 FPKM
- Log2 (+AA/−AA) (gene TLR7, Qvalue 1.13E−20): 2.326
- +AA FPKM (gene TLR7, −AA FPKM 2.483): 12.300 FPKM
- Log2 (+AA/−AA) (gene USP18, Qvalue 0.029120385): 3.335
- +AA FPKM (gene USP18, −AA FPKM 2.210): 22.600 FPKM
- Log2 (+AA/−AA) (gene XCR1, Qvalue 2.80E−29): 2.881
- +AA FPKM (gene XCR1, −AA FPKM 1.363): 10.463 FPKM
- log2 (+AA/−AA) (Table 3, gene FCER1G, Qvalue 0.03): 0.509
